The structures appear in SMILES notation.

Experimental findings from BindingDB's records for doi:10.1016/j.bmcl.2010.03.092 (Takeda California, 2010) are described below.

This experiment addresses Histone deacetylase 2 (Homo sapiens) (UniProt Q92769). In words: Inhibition of human recombinant HDAC2.

Chain of Histone deacetylase 2 (Homo sapiens) (Q92769 whole entry, looked up): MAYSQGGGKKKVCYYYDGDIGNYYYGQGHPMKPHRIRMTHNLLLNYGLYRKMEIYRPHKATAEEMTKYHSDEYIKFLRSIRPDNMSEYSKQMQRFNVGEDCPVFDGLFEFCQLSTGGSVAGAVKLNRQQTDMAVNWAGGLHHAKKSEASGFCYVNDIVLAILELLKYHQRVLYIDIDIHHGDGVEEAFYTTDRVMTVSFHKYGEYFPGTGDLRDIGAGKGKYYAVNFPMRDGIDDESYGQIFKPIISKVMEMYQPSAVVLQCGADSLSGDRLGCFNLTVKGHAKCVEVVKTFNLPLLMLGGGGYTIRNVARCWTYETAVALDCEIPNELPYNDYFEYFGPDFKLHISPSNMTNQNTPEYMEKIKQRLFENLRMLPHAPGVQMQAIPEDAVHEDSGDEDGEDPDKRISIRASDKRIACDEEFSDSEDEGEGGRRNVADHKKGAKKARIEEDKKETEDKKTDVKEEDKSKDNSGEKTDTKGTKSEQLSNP

As to `Cc1c(-c2ccccc2)nc(-c2cccc(/C=C/C(=O)NO)c2)n1CCc1ccccc1` [N-hydroxy-3-(3-(5-methyl-1-phenethyl-4-phenyl-1H-imidazol-2-yl)phenyl)acrylamide], the 50% inhibitory concentration (IC50) – broadly, the concentration that gives 50% inhibition – is 5 nM.
